Data: patent US20230137010A1, “LONG-ACTING APOMORPHINE FORMULATIONS AND INJECTORS FOR THERAPEUTIC DELIVERY OF THE SAME” (Scienture, Inc., priority 2020, published 2023)
Structures can show the parent of a compound that is named as a salt.

Experiments:
[1] = physchem
[2] = Solubility of APO-HCL in organic solvents (O/W microencapsulation solvents and co-solvents for DCM); settings: solvent DCM; hydrochloride hemihydrate
[3] = physchem; settings: organic solvent or mixture
[4] = Solubility of APO-HCL in aqueous media (continuous phase); settings: hydrochloride hemihydrate
[5] = Color change of APO-HCL solutions indicating oxidation

With `CN1CCc2cccc3c2[C@H]1Cc1ccc(O)c(O)c1-3` [APO-HCL, apomorphine hydrochloride hemihydrate] the solubility ([1]; aqueous polyvinyl alcohol (PVA) solution, aqueous with cosolvent or surfactant or cyclodextrin) was less than 300 µg/mL, the solubility ([1]; aqueous polyvinyl alcohol (PVA) solution, pH 8, aqueous with cosolvent or surfactant or cyclodextrin) was less than 1000 µg/mL and the solubility ([1]; aqueous polyvinyl alcohol (PVA) solution, pH 8.5, aqueous with cosolvent or surfactant or cyclodextrin) was less than 1000 µg/mL. For the same compound, the solubility ([1]; water, 20 °C) was 17800 µg/mL, the “Solubility, actual concentration” value [2] was less than 0.5 mg/mL and the solubility ([3]; IPA) was less than 12.7 mg/mL. For the same compound, the solubility ([3]; N-methyl pyrrolidone (NMP)) was 540 mg/mL, the solubility ([3]; THF) was less than 13.3 mg/mL and the solubility ([3]; acetic acid) was less than 2.7 mg/mL. For the same compound, the solubility ([3]; acetone) was less than 0.4 mg/mL, the solubility ([3]; acetonitrile) was less than 12.4 mg/mL and the solubility ([3]; benzyl alcohol) was 51 mg/mL. For the same compound, the solubility ([3]; chloroform) was less than 18.5 mg/mL, the solubility ([3]; dichloromethane (DCM)) was less than 0.5 mg/mL and the solubility ([3]; diethyl ether) was less than 13.7 mg/mL. The solubility ([3]; dimethyl formamide (DMF)) was 508 mg/mL, the solubility ([3]; dimethyl sulfoxide (DMSO)) was 514 mg/mL and the solubility ([3]; dioxane) was less than 12.4 mg/mL. It also gave a solubility ([3]; ethanol) of less than 12.7 mg/mL, a solubility ([3]; ethyl acetate) of less than 0.4 mg/mL and a solubility ([3]; ethyl formate) of less than 0.6 mg/mL. For the same compound, the solubility ([3]; methanol) was 92.8 mg/mL, the solubility [3] was less than 20 mg/mL and the solubility ([3]; toluene) was less than 12.3 mg/mL. The “Solubility, maximum concentration” value ([4]; 0.4% PVA, 5% NaCl) was less than 0.3 mg/mL, the “Aqueous solubility, maximum concentration” value ([4]; Water (20° C. per text)) was 17.9 mg/mL and the “color of the solution (indicating oxidation)” value (from here on “color of the solution”) ([5]; PVA solution containing Tris buffer, due to severe oxidation) was “dark brown”. The “color of the solution” value ([5]; PVA solution containing phosphate buffer, due to severe oxidation) was “dark brown”, the “color of the solution” value ([5]; […]) was “only very limited discoloration” and the “color of the solution” value ([5]; in DMF, oxidation hardly occurred) was “slightly yellowish”. The “color of the solution” value ([5]; in DMSO, oxidation hardly occurred) was “slightly yellowish”, the “color of the solution” value ([5]; in NMP, oxidation hardly occurred) was “slightly yellowish” and the “color of the solution” value ([5]; in benzyl alcohol, indicating severe oxidation) was “dark brown”. For the same compound, the “color of the solution” value ([5]; in methanol, indicating severe oxidation) was “green”.
